Reference: US8163793B2, “Proline derivatives” (Hoffman-La Roche Inc., priority 2009, dated 2012)
Where a name gives a salt, the structure may show the parent alone.

Experiments:
Cat L = Cat L (UniProt P07711); assay: Cathepsin enzyme inhibition assay (fluorogenic peptide substrate Z-Val-Val-Arg-AMC), Cathepsin L; assay type: biochemical, human and mouse; conditions: enzyme 1 nM, substrate 20 μM, pH 6.5; read-out: CatL IC50
Method: (§1) Cathepsin Enzyme Inhibition Assay
(§2) Enzyme activity is measured by observing the increase in fluorescence intensity caused by cleavage of a peptide substrate containing a fluorophore whose emission is quenched in the intact peptide.
(§3) Assay buffer: 100 mM potassium phosphate pH 6.5, EDTA-Na 5 mM, Triton X-100 0.001%, DDT 5 mM.
(§4) Enzymes (all at 1 nM): human and mouse Cathepsin S, Cat K, Cat B, Cat L Substrate (20 μM): Z-Val-Val-Arg-AMC, except for Cat K which uses Z-Leu-Arg-AMC (both from Bachem).
(§5) AMC=7-Amino-4-Methyl-Coumarin.
Excitation 360 nm, Emission 465 nm.
Enzyme is added to the substance dilutions in 96-well microtitre plates and the reaction is started with substrate. Fluorescence emission is measured over 20 minutes, during which time a linear increase is observed in the absence of inhibitor. IC50 are calculated by standard methods. The results are expressed in μM in the following table.

Cathepsin S = Cathepsin S (UniProt P25774); assay: Cathepsin enzyme inhibition assay (fluorogenic peptide substrate Z-Val-Val-Arg-AMC), Cathepsin S; assay type: biochemical, human and mouse; conditions: enzyme 1 nM, substrate 20 μM, pH 6.5; read-out: CatS IC50
Method: as §1, §2, §3, §4, §5
Enzyme is added to the substance dilutions in 96-well microtitre plates and the reaction is started with substrate. […] IC50 are calculated by standard methods. The results are expressed in μM in the following table.

IC50 (Cat L) [nM] | IC50 (Cathepsin S) [nM] | SMILES
293 | 0.24 | N#CC1(NC(=O)C2C[C@@H](S(=O)(=O)c3ccc(OCC(F)(F)F)cc3Cl)CN2C(=O)C2(c3ccc(Cl)nc3)CC2)CC1 (stereo in doubt) [Example 377, (R)-1-[1-(6-Chloro-pyridin-3-yl)-cyclopropanecarbonyl]-4-[2-chloro-4-(2,2,2-trifluoro-ethoxy)-benzenesulfonyl]-pyrrolidine-2-carboxylic acid (1-cyano-cyclopropyl)-amide]
≥ 25000 | 15 | CC(C)(C)OC(=O)N1C[C@H](S(=O)(=O)c2ccccc2CO)C[C@H]1C(=O)NC1(C#N)CC1 [Example 1, (2S,4R)-2-(1-Cyano-cyclopropylcarbamoyl)-4-(2-hydroxymethyl-benzenesulfonyl)-pyrrolidine-1-carboxylic acid tert-butyl ester]
≥ 25000 | 43.5 | CC(C)(C)OC(=O)N1C[C@H](S(=O)(=O)c2ccccc2OC(F)(F)F)C[C@H]1C(=O)NC1(C#N)CC1 [Example 2, (2S,4R)-2-(1-Cyano-cyclopropylcarbamoyl)-4-(2-trifluoromethoxy-benzenesulfonyl)-pyrrolidine-1-carboxylic acid tert-butyl ester]
≥ 25000 | 11 | CC(C)(C)OC(=O)N1C[C@H](S(=O)(=O)c2ccc(-n3ccnc3)cc2)C[C@H]1C(=O)NC1(C#N)CC1 [Example 3, (2S,4R)-2-(1-Cyano-cyclopropylcarbamoyl)-4-(4-imidazol-1-yl-benzenesulfonyl)-pyrrolidine-1-carboxylic acid tert-butyl ester]
16500 | 5.2 | CC(C)(C)OC(=O)N1C[C@H](S(=O)(=O)c2ccc(Cl)cc2Cl)C[C@H]1C(=O)NC1(C#N)CC1 [Example 4, (2S,4R)-2-(1-Cyano-cyclopropylcarbamoyl)-4-(2,4-dichloro-benzenesulfonyl)-pyrrolidine-1-carboxylic acid-tert-butyl ester]
9770 | 0.8 | CC(C)(C)OC(=O)N1C[C@H](S(=O)(=O)c2c(Cl)cccc2Cl)C[C@H]1C(=O)NC1(C#N)CC1 [Example 5, (2S,4R)-2-(1-Cyano-cyclopropylcarbamoyl)-4-(2,6-dichloro-benzenesulfonyl)-pyrrolidine-1-carboxylic acid tert-butyl ester]
≥ 25000 | 38.5 | CC(C)(C)OC(=O)N1C[C@H](S(=O)(=O)c2ccc(F)cc2F)C[C@H]1C(=O)NC1(C#N)CC1 [Example 6, (2S,4R)-2-(1-Cyano-cyclopropylcarbamoyl)-4-(2,4-difluoro-benzenesulfonyl)-pyrrolidine-1-carboxylic acid tert-butyl ester]
≥ 25000 | 2.7 | CC(C)(C)OC(=O)N1C[C@H](S(=O)(=O)c2ccc(Br)cc2C(F)(F)F)C[C@H]1C(=O)NC1(C#N)CC1 [Example 7, (2S,4R)-4-(4-Bromo-2-trifluoromethyl-benzenesulfonyl)-2-(1-cyano-cyclopropylcarbamoyl)-pyrrolidine-1-carboxylic acid tert-butyl ester]
≥ 25000 | 0.7 | CN1CCN(c2ccc(S(=O)(=O)[C@@H]3C[C@@H](C(=O)NC4(C#N)CC4)N(C(=O)OC(C)(C)C)C3)c(C(F)(F)F)c2)CC1 [Example 8, (2S,4R)-2-(1-Cyano-cyclopropylcarbamoyl)-4-[4-(4-methyl-piperazin-1-yl)-2-trifluoromethyl-benzenesulfonyl]-pyrrolidine-1-carboxylic acid tert-butyl ester]
≥ 25000 | 0.6 | CC(C)(C)OC(=O)N1C[C@H](S(=O)(=O)c2ccc(-n3cnc4ccccc43)cc2C(F)(F)F)C[C@H]1C(=O)NC1(C#N)CC1 [Example 9, (2S,4R)-4-(4-Benzoimidazol-1-yl-2-trifluoromethyl-benzenesulfonyl)-2-(1-cyano-cyclopropylcarbamoyl)-pyrrolidine-1-carboxylic acid tert-butyl ester]
≥ 25000 | 0.7 | Cc1ccc(=O)n(-c2ccc(S(=O)(=O)[C@@H]3C[C@@H](C(=O)NC4(C#N)CC4)N(C(=O)OC(C)(C)C)C3)c(C(F)(F)F)c2)n1 [Example 10, (2S,4R)-2-(1-Cyano-cyclopropylcarbamoyl)-4-[4-(3-methyl-6-oxo-6H-pyridazin-1-yl)-2-trifluoromethyl-benzenesulfonyl]-pyrrolidine-1-carboxylic acid tert-butyl ester]
≥ 25000 | 30 | CCc1ccccc1S(=O)(=O)[C@H]1CN[C@H](C(=O)NC2(C#N)CC2)C1 [Example 11, (2S,4R)-4-(2-Ethyl-benzenesulfonyl)-pyrrolidine-2-carboxylic acid (1-cyano-cyclopropyl)-amide Hydrochloride]
42200 | 18 | N#CC1(NC(=O)[C@@H]2C[C@@H](S(=O)(=O)c3ccccc3CO)CN2)CC1 [Example 12, (2S,4R)-4-(2-Hydroxymethyl-benzenesulfonyl)-pyrrolidine-2-carboxylic acid (1-cyano-cyclopropyl)-amide Hydrochloride]
≥ 25000 | 46.5 | N#CC1(NC(=O)[C@@H]2C[C@@H](S(=O)(=O)c3ccccc3OC(F)(F)F)CN2)CC1 [Example 13, (2S,4R)-4-(2-Trifluoromethoxy-benzenesulfonyl)-pyrrolidine-2-carboxylic acid (1-cyano-cyclopropyl)-amide Hydrochloride]
≥ 25000 | 3.2 | N#CC1(NC(=O)[C@@H]2C[C@@H](S(=O)(=O)c3ccc(-n4ccnc4)cc3)CN2)CC1 [Example 14, (2S,4R)-4-(4-Imidazol-1-yl-benzenesulfonyl)-pyrrolidine-2-carboxylic acid (1-cyano-cyclopropyl)-amide Hydrochloride]
4920 | 4.5 | N#CC1(NC(=O)[C@@H]2C[C@@H](S(=O)(=O)c3ccc(Cl)cc3Cl)CN2)CC1 [Example 15, (2S,4R)-4-(2,4-Dichloro-benzenesulfonyl)-pyrrolidine-2-carboxylic acid (1-cyano-cyclopropyl)-amide Hydrochloride]
≥ 25000 | 13.2 | N#CC1(NC(=O)[C@@H]2C[C@@H](S(=O)(=O)c3c(Cl)cccc3Cl)CN2)CC1 [Example 16, (2S,4R)-4-(2,6-Dichloro-benzenesulfonyl)-pyrrolidine-2-carboxylic acid (1-cyano-cyclopropyl)-amide Hydrochloride]
≥ 25000 | 32 | N#CC1(NC(=O)[C@@H]2C[C@@H](S(=O)(=O)c3ccc(F)cc3F)CN2)CC1 [Example 17, (2S,4R)-4-(2,4-Difluoro-benzenesulfonyl)-pyrrolidine-2-carboxylic acid (1-cyano-cyclopropyl)-amide Hydrochloride]
≥ 25000 | – | N#CC1(NC(=O)[C@H]2C[C@@H](S(=O)(=O)c3ccccc3C(F)(F)F)CN2c2ncccc2C(F)(F)F)CC1 [Example 187, (2R,4R)-4-(2-Trifluoromethyl-benzenesulfonyl)-1-(3-trifluoromethyl-pyridin-2-yl)-pyrrolidine-2-carboxylic acid (1-cyano-cyclopropyl)-amide]
≥ 25000 | – | N#CC1(NC(=O)[C@@H]2C[C@@H](S(=O)(=O)c3ccccc3C(F)(F)F)CN2c2ncccn2)CC1 [Example 408, (2S,4R)-1-Pyrimidin-2-yl-4-(2-trifluoromethyl-benzenesulfonyl)-pyrrolidine-2-carboxylic acid (1-cyano-cyclopropyl)-amide]
